# Measured values from paper PMC11170914, “A distinct dimer configuration of a diatom Get3 forming a tetrameric complex with its tail-anchored membrane cargo” (BMC Biology, 2024).
# Target: T1, Pt-Get3a (Phaeodactylum tricornutum, UniProt B7G933)
# T1 construct: gene PHATRDRAFT_22896; full length, residues 1-349; expressed in E. coli; N-terminal 6His tag cleaved by TEV protease
# T1 sequence (B7G933 1-349): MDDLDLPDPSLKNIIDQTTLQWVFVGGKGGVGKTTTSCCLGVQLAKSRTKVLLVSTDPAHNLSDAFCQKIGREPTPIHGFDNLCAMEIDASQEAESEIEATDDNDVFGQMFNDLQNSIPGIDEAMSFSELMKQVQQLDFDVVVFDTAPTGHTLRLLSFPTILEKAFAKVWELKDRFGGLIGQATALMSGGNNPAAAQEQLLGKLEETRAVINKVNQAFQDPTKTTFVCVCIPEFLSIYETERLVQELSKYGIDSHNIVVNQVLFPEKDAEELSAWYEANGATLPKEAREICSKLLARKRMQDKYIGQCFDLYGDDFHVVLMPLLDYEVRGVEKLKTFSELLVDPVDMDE
# Experiment: X-ray crystallography, […] Å
# Settings: co-crystal with 2 mM ADP, 2 mM MgCl2, 2 mM AlCl3, 8 mM NaF, pH 4.7, 25 °C; Mg2+/ADP in nucleotide-binding domain
structure (smiles),measurement,value
Nc1ncnc2c1ncn2[C@@H]1O[C@H](COP(=O)(O)OP(=O)(O)O)[C@@H](O)[C@H]1O [ADP],"X-ray crystallography, 2.32 Å",an ADP and a magnesium ion were observed in the two crystallographic independent monomers
